Converted amounts (≈) assume the structure as drawn.
Key:
[1] = Growth inhibition of human A375-C5 cells after 48 hrs by sulforhodamine B assay; assay type: functional; details: A375-C5, 48 h
[2] = Micelles-buffer partition coefficient, log K of the compound after 30 mins at pH 7.4 by UV-vis spectrophotometric analysis; assay type: physicochemical; details: pH 7.4, 0.5 h
NCI-H460 = experiment: Growth inhibition of human NCI-H460 cells after 48 hrs by sulforhodamine B assay; assay type: functional; details: NCI-H460, 48 h
HL-60 [3] = experiment: Growth inhibition of human HL60 cells after 48 hrs by sulforhodamine B assay; assay type: functional; details: HL-60, 48 h
MCF7 = experiment: Growth inhibition of human MCF7 cells after 48 hrs by sulforhodamine B assay; assay type: functional; details: MCF7, 48 h
[4] = Thermodynamic solubility of the compound after 24 hrs at pH 7.4 by spectrophotometric analysis; assay type: physicochemical; details: buffer, read-out: Therm_solubility
[5] = Liposomes-buffer partition coefficient, log K of the compound after 30 mins at pH 7.4 by UV-vis spectrophotometric analysis; assay type: physicochemical; details: artificial membrane, pH 7.4, 0.5 h
HL-60 [6] = experiment: Cytotoxicity against human HL60 cells after 24 to 72 hrs by trypan blue exclusion assay; assay type: functional, cell-based

SMILES	GI50 [1] [µM]	log K [2]	GI50 (NCI-H460) [µM]	GI50 (HL-60 [3]) [µM]	GI50 (MCF7) [µM]	solubility thermodynamic at 24 h [4] [µM]	log K [5]	IC50 (HL-60 [6]) [µM]
COc1c2c(cc3c(=O)c4cc(Cl)ccc4oc13)OC(C)(C)C=C2	> 150	4.34	> 150	14.1	> 150	–	–	–
CC1(C)CCc2cc3c(=O)c4cc(Cl)ccc4oc3c(O)c2O1	> 150	4.39	> 150	9	> 150	< 0.1	–	–
COc1ccc2oc3c(O)c4c(cc3c(=O)c2c1)CCC(C)(C)O4	> 150	3.35	> 150	23.9	> 150	< 0.1	3.25	–
Cc1ccc2oc3c(O)c4c(cc3c(=O)c2c1)CCC(C)(C)O4	17.6	3.92	48.1	12.5	> 150	< 0.1	3.86	–
COc1cccc2c(=O)c3cc4c(c(O)c3oc12)OC(C)(C)CC4	68	3.58	41.1	27.3	–	0.23 (≈ 0.0751 µg/mL)	3.53	–
CC1(C)CCc2cc3c(=O)c4ccc(O)cc4oc3c(O)c2O1	40.7	3.76	59.1	57	82.5	0.62 (≈ 0.194 µg/mL)	3.32	–
COc1c2c(cc3c(=O)c4cc(C)ccc4oc13)CCC(C)(C)O2	29.7	4.01	30.9	5.14	31.8	–	4.02	–
COc1c2c(cc3c(=O)c4ccc(O)cc4oc13)CCC(C)(C)O2	> 150	3.49	> 150	8.3	> 150	–	3.43	–
COc1cc2oc3c(OC)c4c(cc3c(=O)c2cc1OC)CCC(C)(C)O4	> 100	3.88	> 100	72.3	> 100	–	–	–
COc1ccc2oc3c(OC)c4c(cc3c(=O)c2c1)OC(C)(C)C=C4	> 150	4.21	> 150	–	> 150	–	–	–
COc1c2c(cc3c(=O)c4cc(C)ccc4oc13)OC(C)(C)C=C2	> 50	4.29	> 50	> 50	> 50	–	4.32	–
COc1c2c(cc3c(=O)c4ccc(O)cc4oc13)OC(C)(C)C=C2	27.1	3.9	34.9	18.8	36.9	–	–	–
CCN(CC)c1ccc2c(=O)c3cc4c(c(OC)c3oc2c1)C=CC(C)(C)O4	21.9	–	26.8	9.2	34.3	–	–	–
COc1c2c(cc3c(=O)c4cc(Cl)ccc4oc13)OC(C)(C)CC2	> 75	4.41	> 75	48.4	> 75	–	4.48	–
COc1cc2oc3c(OC)c4c(cc3c(=O)c2cc1OC)OC(C)(C)CC4	> 75	3.83	> 75	–	> 75	–	3.88	–
CCN(CC)c1ccc2c(=O)c3cc4c(c(OC)c3oc2c1)CCC(C)(C)O4	19.6	4.7	13.7	14.4	14.5	–	4.62	–
COc1c2c(cc3c(=O)c4ccccc4oc13)CCC(C)(C)O2	> 150	3.59	> 150	8.8	> 150	–	3.6	–
CC1(C)CCc2cc3c(=O)c4ccccc4oc3c(O)c2O1 [DIHYDRO-12-HYDROXY-2,2-DIMETHYL-2H,6H-PYRANO[3,2-B]XANTHEN-6-ONE]	28.9	3.28	40.3	23.4	39.7	0.4 (≈ 0.119 µg/mL)	3.35	6
COc1cccc2c1C(=O)c1c(O)c3c(c(O)c1C2=O)C[C@@](O)(C(=O)CO)C[C@@H]3O[C@H]1C[C@H](N)[C@H](O)[C@H](C)O1 [DOXORUBICIN]	0.145	–	0.0641	0.028	0.0654	–	–	–
